Experimental data from publication PMC9663428, “The protein conformational basis of isoflavone biosynthesis” (Communications Biology, 2022).

Target: T1, 2-HID (Pueraria montana, UniProt E9M5G1)
T1 construct: His-tagged (Ni-NTA) from pDEST17, expressed in E. coli BL21(DE3); first eight residues not observed; one molecule per asymmetric unit
T1 sequence (E9M5G1 1-325): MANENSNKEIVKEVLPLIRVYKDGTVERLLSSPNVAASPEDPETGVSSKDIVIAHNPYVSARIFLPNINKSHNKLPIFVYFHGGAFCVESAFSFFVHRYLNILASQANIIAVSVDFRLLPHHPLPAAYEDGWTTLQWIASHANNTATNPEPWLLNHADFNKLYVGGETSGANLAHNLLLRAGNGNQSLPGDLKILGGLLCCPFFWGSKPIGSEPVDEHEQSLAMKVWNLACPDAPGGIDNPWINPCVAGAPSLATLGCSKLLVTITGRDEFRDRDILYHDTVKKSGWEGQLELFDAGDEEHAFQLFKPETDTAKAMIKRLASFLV
Assay: X-ray crystal structure, co-crystallization, […] Å
Type: binding
Conditions: carboxylesterase product; active site, hydrogen bond to Thr168; complex is 8EA1 or 8EA2, paper does not say which

O=[N+]([O-])c1ccc(O)cc1 [p-nitrophenol]
X-ray crystal structure, co-crystallization, 2.3 Å: only a structure of 2-HID complexed with p-nitrophenol, a product of the carboxylesterase reaction
